Experiments:
[1] = molecular target: T1, PTGER4 (Homo sapiens, UniProt P35408); experiment: NanoBRET screen HiBiT-PTGER4 in HEK293; type: binding; conditions: PTGER4
T1 construct: purchased Promega (in-house HiBiT-GPCR construct library, NanoBRET)
Procedure: (§1) Each tracer candidate was screened across the entire library of HiBiT-GPCR constructs using NanoBRET as the detection modality. As depicted in Figure 4A, the specificity of interactions was evaluated through decrease in BRET due to competitive displacement of a bound tracer by excess parental compound. Each tracer was analyzed for binding to each HiBiT-GPCR fusion in the absence and in the presence of competing parental compound. Briefly, HEK293 cells were transfected with HiBiT-GPCR constructs diluted into promoterless DNA to reduce expression and maximize translocation to the cell surface. Each tracer candidate was then screened at concentrations of 1 μM and 0.1 μM across cells expressing these fusions. Cells were treated for 1.5 h with tracer either alone or in the presence of 20 μM competing parental compound (i.e., control). BRET was measured upon addition of purified LgBiT and subsequent complementation with HiBiT genetically fused to a GPCR. The specificity of interactions was assessed through a decrease in BRET signal due to competitive displacement of the bound tracer. To further gauge the robustness of these interactions, the fold response over the control (i.e., BRETtracer/BRETcontrol) was calculated. We chose a 1.5-fold response, which translates to ≥7-fold signal over noise as the minimal threshold required to score an interaction as positive. […]. Below we highlight the screening results obtained for our exemplary fluorescent tracers based on Clozapine, Amitriptyline and AZD1283.
(§2) HiBiT-GPCR DNA constructs were diluted in 10 mM Tris pH 8 to a final concentration of 0.01 μg/μL, arrayed in 96-well plates and stored at −20 °C. For transfection, HEK293 cells were suspended in Opti-MEM (without phenol red) supplemented with 2% fetal bovine serum (Seradigm) and 100 units/mL penicillin–streptomycin (Gibco) at a final concentration of 220,000 cells/mL and dispensed into white 96-well plates at 90 μL/well. Subsequent transfections and screens were carried using an Agilent Bravo Automated Liquid Handling Platform. First, the 96-well HiBiT DNA arrays were diluted 25-fold in Opti-MEM (without serum or phenol red) to a final concentration of 0.0004 μg/μL and 20 μL of the diluted DNAs were transferred into new 96-well plates. Next, promoterless carrier DNA (1 μg/μL) was diluted 25-fold (0.04 μg/μL) and then dispensed into the diluted arrays at 20 μL/well. Following brief mixing, Viafect transfection reagent (Promega) diluted 16-fold into Opti-MEM was dispensed into the plates at 40 μL/well. After mixing by pipetting, plates were incubated for 10 min on the pipetting station deck. The DNA-transfection reagent complexes were then added to plates containing cells. To facilitate the screen, 10 μL of DNA-transfection reagent complexes were added in duplicates to the top 4 and bottom 4 rows, resulting in two identical 48-well arrays per plate. Plates with transfected cells were incubated for 18–20 h at 37 °C/5% CO2. A screen of each tracer across the entire library using two different concentrations requires duplicate plates of transfected cells. Depending on the number of tracers being screened, transfections can be scaled up using the same ratios. The next day, for each tracer, four 20× screening solutions in tracer dilution buffer (Promega) were prepared: two duplicates at final concentration of 20 μM and two duplicates at a final concentration of 2 μM. A competing unmodified compound was added to one of each duplicate at a final concentration of 400 μM. The four resulting solutions were diluted 4-fold in Opti-MEM without serum or phenol red to generate 5× solutions (5 µM and 0.5 µM tracer +/− 100 μM competing compound). To screen the library, a BioTek MultiFlo FX liquid dispenser was used to dispense 22.5 µL of tracer solution to the top 4 rows and 22.5 µL tracer + competing compound solution to the 4 bottom rows. Plates were briefly mixed on an orbital shaker and incubated for 1.5 h at room temperature. […]

[2] = molecular target: T2, XCR1 (Homo sapiens, UniProt P46094); experiment: NanoBRET screen HiBiT-XCR1 in HEK293; type: binding; conditions: XCR1
T2 construct: purchased Promega (in-house HiBiT-GPCR construct library, NanoBRET)
T2 sequence (P46094 1-333): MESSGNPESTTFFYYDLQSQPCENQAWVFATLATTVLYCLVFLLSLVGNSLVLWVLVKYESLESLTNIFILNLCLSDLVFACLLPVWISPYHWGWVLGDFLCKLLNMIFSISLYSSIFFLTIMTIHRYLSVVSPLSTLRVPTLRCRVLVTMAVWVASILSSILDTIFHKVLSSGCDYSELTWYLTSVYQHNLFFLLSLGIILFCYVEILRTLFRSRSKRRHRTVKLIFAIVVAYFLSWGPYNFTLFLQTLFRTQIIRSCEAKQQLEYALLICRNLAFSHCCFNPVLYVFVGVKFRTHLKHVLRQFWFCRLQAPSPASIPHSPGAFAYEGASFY
Procedure: as §1, §2

T1 sequence (P35408 whole entry): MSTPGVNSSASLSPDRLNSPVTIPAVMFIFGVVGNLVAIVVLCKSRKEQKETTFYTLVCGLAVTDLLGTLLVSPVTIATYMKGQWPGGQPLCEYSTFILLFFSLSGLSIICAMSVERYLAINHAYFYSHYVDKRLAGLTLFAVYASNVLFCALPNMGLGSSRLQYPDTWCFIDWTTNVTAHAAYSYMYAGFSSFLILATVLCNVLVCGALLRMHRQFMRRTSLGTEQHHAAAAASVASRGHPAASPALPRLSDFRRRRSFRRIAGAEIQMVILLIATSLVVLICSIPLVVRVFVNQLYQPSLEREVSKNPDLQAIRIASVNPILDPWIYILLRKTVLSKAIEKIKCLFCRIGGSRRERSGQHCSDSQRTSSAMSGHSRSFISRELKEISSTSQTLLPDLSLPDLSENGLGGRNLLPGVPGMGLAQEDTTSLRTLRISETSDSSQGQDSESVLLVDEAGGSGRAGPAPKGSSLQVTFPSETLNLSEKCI

For CCCn1c(=O)c2[nH]c(-c3ccc(OCC(=O)NCCNC(=O)CCOCCNC(=O)c4ccc(CNC(=O)CCc5ccc6n5[B-](F)(F)[N+]5=C(c7ccc[nH]7)C=CC5=C6)cc4)cc3)nc2n(CCC)c1=O [XAC-3-NB590], the “NanoBRET Fold Response” value ([1]; tracer 0.1μM) was 1.15, the “NanoBRET Fold Response” value ([1]; tracer 1μM) was 1.01 and the “NanoBRET Fold Response” value ([2]; tracer 0.1μM) was 0.87. For the same compound, the “NanoBRET Fold Response” value ([2]; tracer 1μM) was 0.98.

Reference: article PMC8151276, “An Integrated Approach toward NanoBRET Tracers for Analysis of GPCR Ligand Engagement” (Molecules, 2021)
